# From PubChem BioAssay (NCI)
#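 Values below derive from 48-hour exposures of cells grown in 96-well plates, with endpoints linearly interpolated between the two concentrations bracketing the appropriate inhibition level. GI50 is the concentration that inhibits growth by half. TGI marks complete inhibition of growth.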
# Columns and labels:
# Test in all cases: growth of human tumour cells (NCI), 48 h
# [1] = system: UO-31 renal
# [2] = system: MALME-3M melanoma
# [3] = system: TK-10 renal
# [4] = system: NCI-H522 lung
# [5] = system: DU-145 prostate
# [6] = system: SW-620 colon
# [7] = system: SF-295 CNS
# [8] = system: NCI-H460 lung
# [9] = system: EKVX NSCLC
# [10] = system: IGROV1 ovarian
SMILES,GI50 [1] [µM],TGI [1] [µM],GI50 [2] [µM],TGI [2] [µM],GI50 [3] [µM],TGI [3] [µM],GI50 [4] [µM],TGI [4] [µM],GI50 [5] [µM],TGI [5] [µM],GI50 [6] [µM],TGI [6] [µM],GI50 [7] [µM],TGI [7] [µM],GI50 [8] [µM],TGI [8] [µM],GI50 [9] [µM],TGI [9] [µM],GI50 [10] [µM],TGI [10] [µM]
C/C(=C\c1ccn(-c2ccc(N)cc2)n1)[C@@H]1C[C@@H]2O[C@]2(C)CCC[C@H](C)[C@H](O)[C@@H](C)C(=O)C(C)(C)[C@@H](O)CC(=O)O1,0.251,> 50,0.125,> 50,0.124,> 50,0.0356,0.342,0.0314,0.577,0.0248,> 50,0.0721,> 50,0.0202,> 50,0.256,> 50,0.494,> 50
CCCC(=O)NNc1[nH]c(-c2ccc(OC)cc2)cc1C(=O)OCC,19.9,37.8,14.5,29.2,15.9,30.1,24,50,21.7,45.6,3.54,12.6,38,> 100,46.6,> 100,16.9,32.7,21.2,39.5
Cc1ccc(NC(=O)c2ccnc(N3CCCC3)c2)cc1-c1ccc(C(=O)NCC2CC2)cc1,> 25,> 25,> 25,> 25,> 25,> 25,> 25,> 25,> 25,> 25,> 25,> 25,> 25,> 25,> 25,> 25,> 25,> 25,> 25,> 25
COc1cnc2c(c1)C(=O)c1c-2n(CCCN2CCN(C)CC2)c(=O)c2cc(Cl)ccc12,3.74,22.8,5.77,19.5,,,6.32,52.1,3.18,19.8,0.299,12.8,0.674,20.5,0.377,13.8,7.73,31.9,10.4,87.1
ON(CCc1ccccn1)Cc1ccccc1,,> 100,,> 100,,> 100,,> 100,,> 100,,> 100,,> 100,,> 100,,> 100,,> 100
Cc1cc(C)nc(SC2=C(Nc3cccc(Cl)c3)C(=O)N(Cc3ccccc3)C2=O)n1,> 170,> 170,> 170,> 170,> 170,> 170,> 170,> 170,> 170,> 170,> 170,> 170,> 170,> 170,> 170,> 170,> 170,> 170,> 170,> 170
CC1(C)C2CCC13C(=O)C1OC3(C2)C2C(=O)c3c(O)ccc(O)c3C(=O)C12 (centres undefined),40.5,> 100,18.3,50.6,26.1,69,38.8,> 100,32.2,96.5,,,25.2,> 100,36.8,> 100,> 100,> 100,23.8,> 100
C/C(=C\c1c[nH]c2ccccc12)[N+](=O)[O-],4.85,17.7,2.54,7.85,10.8,24.5,3.19,11.6,3.73,15.5,5.78,26,7.97,22.7,4.18,17.4,10.2,27.1,5.43,19.2
COc1cccc2c1c1nc3cc(C)c(C)cc3nc1n2CCN(C)C,0.337,2.37,1.14,2.62,2.95,11.5,2.39,8.65,3.01,12.1,0.805,11.3,2.17,7.62,1.09,10.9,2.29,7.33,1.76,10.7
CNC1C(O)CC(OC2C/C=C(\C)C/C(C)=C/C=C/CCC(C)CNC(=O)/C=C/C=C/C2C)OC1C (centres undefined),,5.85,,3,,3.17,,2.81,,2.79,,0.261,,0.682,,0.317,,3,,2.58
Clc1ccc(CO/N=C(\Cn2ccnc2)c2ccc(Cl)cc2Cl)c(Cl)c1,1.34,2.79,1.66,3.36,1.81,3.25,1.52,3.28,1.96,3.66,1.55,3.2,,,,,1.43,2.83,1.92,3.92
COC(=O)Nc1nc2ccc(Oc3ccc(NC(=O)Nc4cccc(Cl)c4)cc3)cc2[nH]1,6.93,> 21.4,0.564,7.95,4,11.6,0.543,4.07,1.58,8.44,0.975,9.85,0.777,6.59,0.802,3.86,3.71,> 25,2.86,9.79
[N-]=[N+]=CC(=O)OCC(N)C(=O)O (centres undefined),4.92,> 100,6.56,> 100,0.573,> 100,0.512,> 100,0.952,> 100,0.649,> 100,,,1.27,16.4,3.13,> 100,5.47,> 100
CCOC(=O)c1cc2ncccc2c2ccccc12,,> 100,,> 100,,> 100,,> 100,,> 100,,,,> 100,,> 100,,> 100,,> 100
